From US11925643B2, “Toll-like receptor 4 (TLR4) inhibitors and use thereof” (MOR RESEARCH APPLICATIONS LTD., priority 2018, dated 2024) come the findings set out here.

Each structure is given as a SMILES string. Residues, ends and D or L forms follow the SMILES beside them.

The test system of test [1] is primary cardiomyocytes. Nature of the test: CK and LDH release by primary cardiomyocytes under hypoxia (MI like). The format is cell-based, Rat. The method, then: (§1) Rat hearts (1-2 days old) were removed under sterile conditions and washed three times in phosphate-buffered saline (PBS) to remove excess blood cells. The hearts were minced and then gently agitated in RBD (a solution of proteolytic enzymes (Biological Institute, Ness-Ziona, Israel) prepared from fig tree extract, and diluted 1:100 in Ca^2+- and Mg^2+-free PBS) for a few cycles of 10 min each. Dulbecco's modified Eagle's medium (Biological Industries, Kibbutz Beit Haemek, Israel) containing 10% horse serum was added to supernatant suspensions containing the dissociated cells. The mixture was centrifuged at 1400 rpm for 4 min. The supernatant phase was discarded, and the cells were re-suspended. The cell suspension was diluted to 1.0×10^6 cells/ml, unless stated otherwise, and 1.5 ml of the suspension was placed in 35-mm plastic culture dishes collagen- or gelatin-coated, or on coated cover glasses. The cultures were incubated in a humidified atmosphere of 5% CO2 and 95% air at 37° C.
Using a vacuum pump, the oxygen rich air was evacuated from an incubator containing plates with cell cultures, and a 100% Argon atmosphere was let in, while maintaining a temperature of 37° C. The cell cultures were washed with PBS twice to remove glucose from the medium. Hypoxic treated cells were cultures in PBS without glucose. These cells lasted for 180 minutes.
(§2) Primary cardiomyocytes which were obtained by method described above, were treated with exemplary decoy peptides described herein. After 30 minutes of incubation, sepsis like (LPS treatment for 6 hours), or myocardial infarction (MI) like (hypoxia for 3 hours) conditions were imposed to measure the release of CK and LDH to the medium and determine the potential cardioprotective effect of the tested decoy peptides. Cytotoxicity and level of cell damage were assessed by spectrophotometric measurement of lactate dehydrogenase (LDH) and creatine kinase (CK) activities (at 30° C.). Results are presented as CK and LDH release in arbitrary units (a.u.)
(§3) Activity of LDH and CK was determined in the cell-culture medium (25 μl) transferred into 96-well plates, using commercial L-LDH/CK kits (such as those manufactured, e.g., by Sigma-Aldrich, BioVision™ or Thermo Fisher Scientific®).
(§4) Primary cardiomyocytes were treated with peptides and peptidomimetics of SEQ ID NOs:1-7 provided at concentrations ranging from 1 μM to 20 μM. Following 30 minutes of incubation, sepsis like (LPS treatment for 6 hours) or MI like (hypoxia for 3 hours) conditions were induced to determine the potential cardioprotective effect of the tested compounds. Creatine kinase (CK) and lactate dehydrogenase (LDH) activity were assayed to determine the level of cellular damage and cell protection effect. The experimental procedure is described in Materials and Methods above. Results are presented as CK and LDH release in arbitrary units (a.u.).
A general note: Release of lactate dehydrogenase indicates damage to the cell membrane.

In test [2] the test system is primary cardiomyocytes. Description: CK and LDH release by primary cardiomyocytes under LPS treatment (sepsis like). The format is cell-based, Rat. The settings on record: LPS treatment; 20 μM. The method, then:
as §1, §2, §3, §4

The test system of another test is IκB. Nature of the test: IκB protein level by Western blot in hypoxic cardiomyocytes. In kind it is cell-based. As to the method:
Frozen tissue/cell cultures of liver or heart were pulverized under liquid nitrogen and placed in a homogenization buffer ([…] phosphate buffer, […] sucrose, […] EDTA, […] phenylmethylsulfonyl fluoride (PMSF), and 0.1% vol/vol tergitol, pH 7.5). Myocytes from cell cultures were homogenized in lysis buffer.
Homogenates were centrifuged at 12K rpm for 10 minutes at 4° C., the supernatant was isolated, and protein levels were visualized by immunoblotting with antibodies. Briefly, proteins (60 μg/sample) were separated using SDS-PAGE gel (12%-15%) under denaturing conditions and electro-transferred (blotted) onto nitrocellulose (Bio-Rad) for 1 hour at 100 V. Membranes were blocked with 5% nonfat milk in Tris-buffered saline with 0.1% Tween® 20 (TBST) for 1 hour at room temperature. Primary antibodies were used at a 1:200-1:1000 concentration in TBST with 5% nonfat milk overnight at 4° C. Immunodetection of β-actin/GPDH was performed as an internal control. Dye 800/680 secondary antibodies were added at a concentration of 1:15000 for 1 hour at room temperature (LI-COR® Biosciences, NE, USA). Detection was carried out with LI-CORE® Odyssey® imaging system. Quantification of signals was carried out with the Odyssey® program.
The mechanism of action of peptidomimetics of SEQ ID NOs:1, 2 and 12 was studied in vitro in cardiomyocytes, under hypoxic conditions, by determining the expression level of the IκB gene, which is regulated by activation of TLR4, and by measuring the TLR4 mRNA levels. In addition, TLR4 expression level was measured in macrophage (derived from monocytes) treated with LPS.
IκB protein level was determined by Western blot as described in Material and Methods. The amount of IκB was normalized via-a-vis the amount of β-actin serving as the loading control (the β-actin is coded by a housekeeping gene and its level is expected to remain constant under any experimental conditions).
(In general: In western blotting, separated proteins are transferred to a membrane and probed.)

The test system of the next test is TLR4 mRNA. Description: TLR4 mRNA level by RT-qPCR in hypoxic cardiomyocytes. The format is cell-based. The settings on record: hypoxic conditions. As to the method:
Real-time RT-PCR experiments were performed in duplicates on an ABI 7900 instrument (Applied Biosystems™) using Taqman™ Master Mix (Applied Biosystems™). The average threshold cycles (Ct) of the duplicates were used to calculate the relative expression levels of the following genes: TLR4 (Applied Biosystems™ assay primer ID: Mm00569848_m1 Tlr4), TLR2 (assay primer ID: Mm01769726_m1 Tlr2), TNF-α (assay primer ID: Mm00443260_g1 Tnf) and IL-1β (assay primer ID: Mm00434228_m1 II1b) in vitro and in vivo following hypoxia or ischemia, respectively. The reference gene was TBP and the primer used was derived from mouse TATA-box binding protein (Applied Biosystems™ assay primer ID: Mm00446973_m1 Tbp). Amounts of TLR2, TLR4, TNF-α and IL-1β mRNAs in each sample were calculated relative to TBP mRNA, based on the corresponding Cts, as Relative Quantity (RQ) values, and normalized taking as 1 a randomly selected sample of the control group (TBP mRNA). Calculation were performed using the Applied Biosystems Analysis™ software (StepOnePlus V2.2.2). All mRNA scores are presented in arbitrary units.
Next, peptidomimetics of SEQ ID NOs:1 and 2 were tested for their ability to affect the expression of TLR4. The level of TLR4 mRNA was measured by real-time reverse transcriptase polymerase chain reaction (RT-qPCR) method as described in Materials and Methods. The possible effect of both compounds on expression levels of TLR2 mRNA was used as a negative control.
A general note: Real-time PCR tracks product formation cycle by cycle.

`CCCCCCCCNc1nc(=O)n(Cc2ccccc2)cc1C` [PM6, 1-benzyl-5-methyl-4-(octylamino)pyrimidin-2(1H)-one]: in the test on primary cardiomyocytes [1] (20 μM), the CK release entry is on record as “significant reduction” and the LDH release result is reported as “significant reduction”. In the test on primary cardiomyocytes [2], the CK release result was “no significant effect” and the LDH release entry is reported as “no significant effect”. In addition, in the test on IκB (20 μM, compared to hypoxic cells not treated), the “inhibition of decrease of IκB protein level” value was “roughly 7 fold”. Also, the “inhibition of TLR4 mRNA production” value in the test with TLR4 mRNA is reported as roughly 3.3 fold.

Consider `CC[C@H](C)[C@H](NC(C)=O)C(=O)N[C@H](C(=O)N[C@@H](Cc1ccccc1)C(=O)N[C@@H](C)C(N)=O)C(C)C` [SEQ ID NO:1, (2S,3S)-2-acetamido-N-((S)-1-(((S)-1-(((S)-1-amino-1-oxopropan-2-yl)amino)-1-oxo-3-phenylpropan-2-yl)amino)-3-methyl-1-oxobutan-2-yl)-3-methylpentanamide] (Ac-IVFA-NH2), for which the “minimal effective concentration (cardioprotective effect, CK and LDH release)” value in the test on primary cardiomyocytes [1] was 1 µM. Further, in the test with primary cardiomyocytes [2], the CK release entry is recorded as “subnormal levels” and the LDH release result is on record as “subnormal levels”. Moreover, in the test on IκB (normalized to β-actin), the IκB level result is on record as “high levels”. For the same compound, the “TLR4 mRNA expression level” value with TLR4 mRNA is “significantly decreased”.
